In patent US20240150375A1, “MACROCYCLIC COMPOUNDS AND USES THEREOF” (Theseus Pharmaceuticals, Inc., priority 2021, published 2024):

Legend:
EGFR^L858R/T790M/C797S = EGFR^L858R/T790M/C797S (Homo sapiens, UniProt P00533, C797S/L858R/T790M); test: HTRF KinEASE-TK in vitro kinase assay, EGFR L858R/T790M/C797S (LTC); format: biochemical; conditions: EGFR L858R/T790M/C797S kinase inhibition
Source text: (§1) The biological activity of compounds described herein can be studied according to standard methods known in the art. Methods can be used to study inhibition of EGFR, including mutant forms of EGFR comprising L858R, T790M, C797S, and/or Del19 mutations, or any combination thereof (e.g., L858R single, double, or triple mutants). Exemplary, non-limiting methods are described herein.
(§2) Assays using an in vitro kinase assay kit (HTRF KinEASE-TK kit) can be used to study the inhibitory activity of compounds described herein with respect to EGFR mutants such as ECFR^L858R, EGFR^L858R/T790M, and EGFR^L858R/T790M/C797S.
(§3) One hundred thirty six compounds were studied using the kinase (EGFR) and BA/F3 assays described herein, with more than 60% of the tested compounds providing IC50<50 nM values in all six assays. Accordingly, compounds of the invention are a new general class of kinase inhibitors, including potent inhibitors of EGFR mutants.
(§4) Exemplary kinase inhibition (Kinase) and anti-proliferation activity (Ba/F3) data are shown in Table 1 for certain compounds of the invention and are categorized according to the below legend.

[1] = molecular target: Ba/F3 EGFR-Del19/T790M/C797S (Homo sapiens, UniProt P00533, T790M/C797S, cells depend on it, form not given); test: Ba/F3 viability assay (CellTiter-Glo), EGFR-Del19/T790M/C797S (DTC); format: cell-based; conditions: Ba/F3 EGFR-Del19/T790M/C797S anti-proliferation; read-out: BAF3 DTC IC50
Sequence of Ba/F3 EGFR-Del19/T790M/C797S (P00533 with tags, fused parts or gaps DEL746-750/T790M/C797S, form open): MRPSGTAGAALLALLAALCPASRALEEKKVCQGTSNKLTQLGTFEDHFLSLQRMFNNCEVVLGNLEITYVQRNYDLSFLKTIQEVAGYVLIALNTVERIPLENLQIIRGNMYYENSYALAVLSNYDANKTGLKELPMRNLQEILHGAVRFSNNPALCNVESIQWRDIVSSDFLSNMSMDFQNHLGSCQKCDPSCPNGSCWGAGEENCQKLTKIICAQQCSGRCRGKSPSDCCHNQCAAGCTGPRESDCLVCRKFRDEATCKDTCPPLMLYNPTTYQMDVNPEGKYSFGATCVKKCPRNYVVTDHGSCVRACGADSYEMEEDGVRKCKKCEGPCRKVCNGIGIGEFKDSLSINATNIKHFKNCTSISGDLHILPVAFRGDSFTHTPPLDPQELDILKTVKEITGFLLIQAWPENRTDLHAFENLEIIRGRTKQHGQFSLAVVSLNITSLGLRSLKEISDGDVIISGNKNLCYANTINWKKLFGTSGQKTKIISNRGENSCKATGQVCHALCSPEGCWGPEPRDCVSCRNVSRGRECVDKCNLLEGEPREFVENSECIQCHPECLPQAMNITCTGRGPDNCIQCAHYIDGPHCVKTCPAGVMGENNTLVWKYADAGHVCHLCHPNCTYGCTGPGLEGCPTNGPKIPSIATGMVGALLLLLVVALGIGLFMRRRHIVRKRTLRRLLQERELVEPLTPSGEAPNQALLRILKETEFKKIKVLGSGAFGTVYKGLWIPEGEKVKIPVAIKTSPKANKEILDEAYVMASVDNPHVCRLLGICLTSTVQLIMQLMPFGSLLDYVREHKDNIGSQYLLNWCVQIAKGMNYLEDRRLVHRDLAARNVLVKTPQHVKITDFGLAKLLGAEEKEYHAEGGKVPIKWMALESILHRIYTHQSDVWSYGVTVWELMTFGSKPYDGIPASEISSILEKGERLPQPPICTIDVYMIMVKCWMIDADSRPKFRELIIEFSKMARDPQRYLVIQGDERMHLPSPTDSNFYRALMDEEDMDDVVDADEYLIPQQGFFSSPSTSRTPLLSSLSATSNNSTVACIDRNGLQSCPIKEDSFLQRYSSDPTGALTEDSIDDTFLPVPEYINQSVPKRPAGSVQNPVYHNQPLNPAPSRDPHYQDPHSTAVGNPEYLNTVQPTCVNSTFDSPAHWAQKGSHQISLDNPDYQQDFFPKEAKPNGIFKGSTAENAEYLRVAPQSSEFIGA
Source text: (§5) Inhibition of cell proliferation can be studied using Ba/F3 viability assays, including the Promega CellTiter-Glo cell viability assay. This assay can be used to study the effect of compounds described herein in the following assays: (1) Ba/F3 Parental; (2) Ba/F3 EGFR-Del19/T790M; (3); Ba/F3 EGFR-Del19/C797S; and (4) Ba/F3 EGFR-Del119/T790M/C797S.
as §3, §4

EGFR^L858R/T790M = EGFR^L858R/T790M (Homo sapiens, UniProt P00533, L858R/T790M); test: HTRF KinEASE-TK in vitro kinase assay, EGFR L858R/T790M (LT); format: biochemical; conditions: EGFR L858R/T790M kinase inhibition
Source text: as §1, §2, §3, §4

EGFR^L858R = EGFR^L858R (Homo sapiens, UniProt P00533, L858R); test: HTRF KinEASE-TK in vitro kinase assay, EGFR L858R (L); format: biochemical; conditions: EGFR L858R kinase inhibition
Sequence of EGFR^L858R (P00533 25-1210 L858R): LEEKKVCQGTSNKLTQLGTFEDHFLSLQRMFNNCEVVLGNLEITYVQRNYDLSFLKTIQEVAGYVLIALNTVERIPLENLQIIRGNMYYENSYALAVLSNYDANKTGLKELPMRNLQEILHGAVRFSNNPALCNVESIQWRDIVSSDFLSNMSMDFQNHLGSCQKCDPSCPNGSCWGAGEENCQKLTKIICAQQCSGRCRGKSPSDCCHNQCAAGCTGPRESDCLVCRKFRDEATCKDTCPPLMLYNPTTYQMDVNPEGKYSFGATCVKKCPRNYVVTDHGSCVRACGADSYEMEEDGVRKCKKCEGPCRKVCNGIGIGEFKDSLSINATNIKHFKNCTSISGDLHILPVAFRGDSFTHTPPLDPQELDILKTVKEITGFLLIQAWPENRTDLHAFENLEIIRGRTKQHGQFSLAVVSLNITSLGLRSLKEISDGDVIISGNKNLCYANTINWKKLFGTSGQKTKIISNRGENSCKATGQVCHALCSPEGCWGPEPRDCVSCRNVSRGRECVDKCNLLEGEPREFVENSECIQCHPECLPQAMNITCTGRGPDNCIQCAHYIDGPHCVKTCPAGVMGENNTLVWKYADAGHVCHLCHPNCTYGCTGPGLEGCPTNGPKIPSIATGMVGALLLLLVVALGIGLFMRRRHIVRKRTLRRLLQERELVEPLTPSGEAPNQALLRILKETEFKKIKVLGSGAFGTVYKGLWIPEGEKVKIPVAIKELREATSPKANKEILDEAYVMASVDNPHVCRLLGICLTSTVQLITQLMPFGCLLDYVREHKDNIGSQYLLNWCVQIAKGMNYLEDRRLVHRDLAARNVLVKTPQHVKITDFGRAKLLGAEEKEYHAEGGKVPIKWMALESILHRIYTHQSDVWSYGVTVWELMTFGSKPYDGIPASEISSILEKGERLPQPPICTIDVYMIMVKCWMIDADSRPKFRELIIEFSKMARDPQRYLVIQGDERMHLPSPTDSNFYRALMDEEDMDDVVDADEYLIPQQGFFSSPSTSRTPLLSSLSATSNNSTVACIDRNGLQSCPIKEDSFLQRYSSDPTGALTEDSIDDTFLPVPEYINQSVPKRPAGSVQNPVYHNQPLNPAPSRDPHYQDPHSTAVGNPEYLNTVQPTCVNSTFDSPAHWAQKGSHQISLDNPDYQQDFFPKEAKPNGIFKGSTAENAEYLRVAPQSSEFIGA
Source text: as §1, §2, §3, §4

Ba/F3 EGFR-Del19/C797S = Ba/F3 EGFR-Del19/C797S (Homo sapiens, UniProt P00533, C797S, cells depend on it, form not given); test: Ba/F3 viability assay (CellTiter-Glo), EGFR-Del19/C797S (DC); format: cell-based; conditions: Ba/F3 EGFR-Del19/C797S anti-proliferation; read-out: BAF3 DC IC50
Sequence of Ba/F3 EGFR-Del19/C797S (P00533 with tags, fused parts or gaps DEL746-750/C797S, form open): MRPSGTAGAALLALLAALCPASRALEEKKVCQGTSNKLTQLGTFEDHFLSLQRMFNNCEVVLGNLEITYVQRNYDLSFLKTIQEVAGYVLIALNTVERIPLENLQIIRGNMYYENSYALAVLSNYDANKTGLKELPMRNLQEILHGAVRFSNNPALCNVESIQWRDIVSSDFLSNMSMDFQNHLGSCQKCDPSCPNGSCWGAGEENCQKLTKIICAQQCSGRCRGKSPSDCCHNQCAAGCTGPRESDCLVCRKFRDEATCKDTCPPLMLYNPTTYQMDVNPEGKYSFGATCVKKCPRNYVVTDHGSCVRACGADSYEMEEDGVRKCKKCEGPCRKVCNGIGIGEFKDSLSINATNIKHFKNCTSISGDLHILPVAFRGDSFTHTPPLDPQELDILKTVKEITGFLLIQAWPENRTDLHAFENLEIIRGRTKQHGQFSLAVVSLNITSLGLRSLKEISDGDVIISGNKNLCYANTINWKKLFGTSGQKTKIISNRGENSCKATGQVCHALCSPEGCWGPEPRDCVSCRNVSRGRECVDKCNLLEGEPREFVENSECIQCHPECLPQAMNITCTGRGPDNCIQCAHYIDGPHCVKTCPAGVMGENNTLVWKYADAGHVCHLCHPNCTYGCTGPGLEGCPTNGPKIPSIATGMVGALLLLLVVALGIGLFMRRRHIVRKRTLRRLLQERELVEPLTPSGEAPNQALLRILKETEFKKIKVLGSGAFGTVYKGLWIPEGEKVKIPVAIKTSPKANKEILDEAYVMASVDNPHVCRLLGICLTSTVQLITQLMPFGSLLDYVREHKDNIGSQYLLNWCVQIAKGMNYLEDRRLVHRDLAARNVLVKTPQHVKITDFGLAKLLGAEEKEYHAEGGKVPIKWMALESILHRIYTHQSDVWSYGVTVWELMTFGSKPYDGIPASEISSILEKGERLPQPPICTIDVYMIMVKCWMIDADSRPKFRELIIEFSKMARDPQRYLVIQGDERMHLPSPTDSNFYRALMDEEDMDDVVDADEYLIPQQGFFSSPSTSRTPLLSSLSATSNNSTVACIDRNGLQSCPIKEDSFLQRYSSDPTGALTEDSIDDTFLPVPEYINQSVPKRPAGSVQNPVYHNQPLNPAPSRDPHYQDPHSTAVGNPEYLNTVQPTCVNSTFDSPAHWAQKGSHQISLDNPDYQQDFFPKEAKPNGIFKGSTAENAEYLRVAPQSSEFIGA
Source text: as §5, §3, §4

Ba/F3 EGFR-Del19/T790M = Ba/F3 EGFR-Del19/T790M (Homo sapiens, UniProt P00533, T790M, cells depend on it, form not given); test: Ba/F3 viability assay (CellTiter-Glo), EGFR-Del19/T790M (DT); format: cell-based; conditions: Ba/F3 EGFR-Del19/T790M anti-proliferation; read-out: BAF3 DT IC50
Source text: as §5, §3, §4

Sequence of EGFR^L858R/T790M/C797S (P00533 25-1210 T790M/C797S/L858R): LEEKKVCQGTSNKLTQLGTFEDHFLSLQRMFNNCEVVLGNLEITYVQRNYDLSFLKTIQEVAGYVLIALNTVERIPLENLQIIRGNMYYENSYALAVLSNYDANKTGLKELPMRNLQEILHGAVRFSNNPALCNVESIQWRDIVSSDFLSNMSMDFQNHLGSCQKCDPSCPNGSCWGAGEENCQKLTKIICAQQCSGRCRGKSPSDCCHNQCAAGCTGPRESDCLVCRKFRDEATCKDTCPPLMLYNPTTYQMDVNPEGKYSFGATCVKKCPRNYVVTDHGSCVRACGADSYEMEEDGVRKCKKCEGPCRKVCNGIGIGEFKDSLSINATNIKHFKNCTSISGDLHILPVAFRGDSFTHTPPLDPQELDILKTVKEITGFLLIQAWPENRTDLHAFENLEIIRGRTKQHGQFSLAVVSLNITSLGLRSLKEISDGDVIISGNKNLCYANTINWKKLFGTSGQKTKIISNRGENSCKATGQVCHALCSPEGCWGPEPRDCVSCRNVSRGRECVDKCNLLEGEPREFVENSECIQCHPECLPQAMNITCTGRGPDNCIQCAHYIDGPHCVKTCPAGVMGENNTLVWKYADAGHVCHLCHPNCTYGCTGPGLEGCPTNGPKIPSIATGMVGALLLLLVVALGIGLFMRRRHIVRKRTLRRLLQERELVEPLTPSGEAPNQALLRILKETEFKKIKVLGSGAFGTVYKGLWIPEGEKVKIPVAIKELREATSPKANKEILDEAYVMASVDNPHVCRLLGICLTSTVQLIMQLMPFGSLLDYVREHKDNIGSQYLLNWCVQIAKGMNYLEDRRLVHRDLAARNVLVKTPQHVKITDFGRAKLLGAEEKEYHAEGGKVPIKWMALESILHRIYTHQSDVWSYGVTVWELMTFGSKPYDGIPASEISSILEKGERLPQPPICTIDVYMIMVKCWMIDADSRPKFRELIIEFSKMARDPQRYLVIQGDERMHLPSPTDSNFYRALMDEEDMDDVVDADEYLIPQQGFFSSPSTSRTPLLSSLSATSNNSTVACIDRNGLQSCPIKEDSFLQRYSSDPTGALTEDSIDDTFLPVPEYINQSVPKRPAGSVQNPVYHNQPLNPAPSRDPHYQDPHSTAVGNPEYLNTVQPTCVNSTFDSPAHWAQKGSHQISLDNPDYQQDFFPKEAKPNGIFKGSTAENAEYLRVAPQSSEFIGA

| SMILES | IC50 (EGFR^L858R/T790M/C797S) [nM] | GI50 [1] [nM] | IC50 (EGFR^L858R/T790M) [nM] | IC50 (EGFR^L858R) [nM] | GI50 (Ba/F3 EGFR-Del19/C797S) [nM] | GI50 (Ba/F3 EGFR-Del19/T790M) [nM] |
| --- | --- | --- | --- | --- | --- | --- |
| C[C@H]1CCOc2c(cnn2C)-c2nccc(n2)Nc2cc(c(-c3cc(CN4CCN(C)CC4)n(C)c3)cn2)O1 [(127), (10S)-5,10-dimethyl-13-[1-methyl-5-[(4-methylpiperazin-1-yl)methyl]pyrrol-3-yl]-7,11-dioxa-4,5,15,17,21,22-hexazatetracyclo[16.3.1.1^12,16.0^2,6]tricosa-1(22),2(6),3,12(23),13,15,18,20-octaene] | < 50 | < 50 | < 50 | < 50 | < 50 | < 50 |
| C[C@H]1CCOc2c(cnn2C)-c2nccc(n2)Nc2cc(c(-c3cnc(N4CCN(C)CC4)c(OCC(F)(F)F)c3)cn2)O1 [(128)] | < 50 | < 50 | < 50 | < 50 | 50 to 100 | 50 to 100 |
| C[C@H]1CCOc2c(cnn2C)-c2nccc(n2)Nc2cc(c(-c3ccc(N(C)CCN(C)C)cc3)cn2)O1 [(133)] | < 50 | < 50 | < 50 | < 50 | < 50 | < 50 |
| COc1cc(-c2cnc3cc2O[C@@H](C)CCOc2c(cnn2C)-c2nccc(n2)N3)cnc1N1CCN(C)CC1 [(137)] | < 50 | < 50 | < 50 | < 50 | < 50 | < 50 |
| C[C@H]1CCOc2c(cnn2C)-c2nccc(n2)Nc2cc(c(-c3ccc(N(C)CCN(C)C)nc3)cn2)O1 [(138)] | < 50 | < 50 | < 50 | < 50 | 50 to 100 | 50 to 100 |
| C[C@H]1CCOc2c(cnn2C)-c2nccc(n2)Nc2cc(c(-c3cnn(C4CCNCC4)c3)cn2)O1 [(141)] | < 50 | < 50 | < 50 | < 50 | < 50 | < 50 |
| C[C@H]1CCOc2c(cnn2C)-c2nccc(n2)Nc2cc(c(-c3cc(CN4CCOCC4)n(C)n3)cn2)O1 [(144)] | < 50 | < 50 | < 50 | < 50 | < 50 | < 50 |
| COC(=O)c1cc(-c2cnc3cc2O[C@@H](C)CCOc2c(cnn2C)-c2nccc(n2)N3)n(C)c1 [(145)] | < 50 | 100 to 1000 | < 50 | 100 to 1000 | 100 to 1000 | 100 to 1000 |
| C[C@H]1CCOc2c(cnn2C)-c2nccc(n2)Nc2cc(c(-c3ccc(CN4CCN(C)CC4)c(OCC(F)(F)F)c3)cn2)O1 [(146)] | < 50 | < 50 | < 50 | < 50 | < 50 | < 50 |
| COc1cc(-c2cnc3cc2O[C@@H](C)CCOc2c(cnn2C)-c2nccc(n2)N3)ccc1CN1CCN(C)CC1 [(147)] | < 50 | < 50 | < 50 | < 50 | < 50 | < 50 |
| C[C@H]1CCOc2c(cnn2C)-c2nccc(n2)Nc2cc(c(-c3cccc(NCCN(C)C)c3)cn2)O1 [(148)] | < 50 | < 50 | < 50 | < 50 | < 50 | < 50 |
| COc1cc(CN2CCN(C)CC2)ccc1-c1cnc2cc1O[C@@H](C)CCOc1c(cnn1C)-c1nccc(n1)N2 [(149)] | < 50 | < 50 | < 50 | < 50 | < 50 | 50 to 100 |
| CCOc1cc(-c2cnc3cc2O[C@@H](C)CCOc2c(cnn2C)-c2nccc(n2)N3)ccc1CN1CCN(C)CC1 [(150)] | < 50 | < 50 | < 50 | < 50 | < 50 | < 50 |
| C[C@H]1CCOc2c(cnn2C)-c2nccc(n2)Nc2cc(c(Cl)cn2)O1 [(151), (10S)-13-chloro-5,10-dimethyl-7,11-dioxa-4,5,15,17,21,22-hexazatetracyclo[16.3.1.112,16.02,6]tricosa-1(22),2(6),3,12(23),13,15,18,20-octaene] | < 50 | 100 to 1000 | < 50 | 50 to 100 | 100 to 1000 | 100 to 1000 |
| C[C@H]1CCOc2c(cnn2C)-c2nccc(n2)Nc2cc(c(-c3ccc(N4CCN(C)CC4)nc3)cn2)O1 [(152)] | < 50 | < 50 | < 50 | < 50 | < 50 | < 50 |
| C[C@H]1CCOc2c(cnn2C)-c2nccc(n2)Nc2cc(ccn2)O1 [(153)] | < 50 | 100 to 1000 | < 50 | 100 to 1000 | 100 to 1000 | 100 to 1000 |
| C[C@H]1CCOc2c(cnn2C)-c2nccc(n2)Nc2cc(c(-c3cccc(CN4CCN(C)CC4)c3)cn2)O1 [(159)] | < 50 | < 50 | < 50 | < 50 | < 50 | < 50 |
| C[C@H]1CCOc2c(cnn2C)-c2nccc(n2)Nc2cc(c(-c3ccc(CN4CCN(C)CC4)cc3)cn2)O1 [(160)] | < 50 | < 50 | < 50 | < 50 | < 50 | < 50 |
| CC1CCOc2c(cnn2C)-c2nccc(n2)Nc2cc(c(-c3ccc(CN4CCN(C)CC4)cc3)cn2)O1 (stereo not drawn) [(169), 5,10-dimethyl-13-[4-[(4-methylpiperazin-1-yl)methyl]phenyl]-7,11-dioxa-4,5,15,17,21,22-hexazatetracyclo[16.3.1.112,16.02,6]tricosa-1(22),2(6),3,12(23),13,15,18,20-octaene] | < 50 | < 50 | < 50 | < 50 | < 50 | < 50 |
